Measured values as given in ChEMBL document CHEMBL1122620, “Inhibition of renin by substrate analogue inhibitors containing the olefinic amino acid 5(S)-amino-7-methyl-3(E)-octenoic acid” (J Med Chem, 1984).
Where a SMILES comes first, the peptide text is derived from it.

Tests used:
Renin (Sus scrofa) = experiment: Compound was evaluated for Non-competitive Renin inhibitory activity against hog kidney renin; Non competitive
Renin = biological target: T1, Renin (Homo sapiens, UniProt P00797); experiment: Compound was evaluated for competitive Renin inhibitory activity against human amniotic renin; Competitive
T1 sequence (P00797 whole entry): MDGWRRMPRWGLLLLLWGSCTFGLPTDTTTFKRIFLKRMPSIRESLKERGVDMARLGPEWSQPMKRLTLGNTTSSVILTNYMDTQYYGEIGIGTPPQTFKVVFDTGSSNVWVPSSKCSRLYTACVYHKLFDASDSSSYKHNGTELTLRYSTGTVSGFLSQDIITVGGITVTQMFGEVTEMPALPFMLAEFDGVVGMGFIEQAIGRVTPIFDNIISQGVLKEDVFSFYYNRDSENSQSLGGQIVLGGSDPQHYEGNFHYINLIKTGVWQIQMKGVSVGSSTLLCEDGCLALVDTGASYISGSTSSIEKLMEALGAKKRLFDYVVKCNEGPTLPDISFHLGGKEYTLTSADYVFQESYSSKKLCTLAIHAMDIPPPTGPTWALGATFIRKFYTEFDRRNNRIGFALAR

Ki (Renin (Sus scrofa)) [µM] | Ki (Renin) [µM] | SMILES
500 |  | COC(=O)[C@H](Cc1ccccc1)NC(=O)[C@@H](NC(=O)[C@H](CC(C)C)NC(=O)[C@@H](N)CC(C)C)C(C)C (H-LLVF-OMe)
 | 1000 | COC(=O)[C@H](Cc1ccccc1)NC(=O)[C@@H](NC(=O)CNC(=O)[C@@H](N)CC(C)C)C(C)C (H-LGVF-OMe)
